In brackets after ≈: the same amount, converted by molar mass. Activity calls are given as the source filed them. The rule behind the calls is not given here.
Tests used:
ARPE-19 [1] = assay: Cytoprotective effect against H2O2-induced oxidative stress in human ARPE-19 cells assessed as increase in cell viability at low concentration incubated for 24 hrs followed by H2O2 treatment by MTT assay; format: functional, cell-based
[2] = Toxicity in zebrafish larval dye model harboring atp6v0e1/ucd6 assessed as morphological abnormalities at 20 to 100 uM treated for 2 days; parameters: species or system Danio rerio; details: in vivo, 48 h, dose 20-100 µM, time 2 day
[3] = Metabolic stability in human liver microsomes assessed as compound recovery at 10 uM incubated for 60 mins in presence of NADPH by HPLC analysis; format: ADME, Microsome; details: read-out: Stability
Danio rerio [4] = organism: Danio rerio; assay: Rescue of visual acuity in zebrafish larval dye model harboring atp6v0e1/ucd6 at 100 uM treated for 2 days by OKR analysis; format: functional, organism-based; details: time 2.0 day
[5] = Toxicity in zebrafish larval dye model harboring atp6v0e1/ucd6 assessed as maximum tolerated dose treated for 2 days; parameters: species or system Danio rerio; details: in vivo, 48 h, time 2 day
Mus musculus [6] = assay: Downregulation of Rps6kl1 mRNA level in eyes of C57BL/6J mouse model harboring rd10 mutant at 5 to 30 uM, IVT administered bilaterally measured after 5 days by RT-PCR analysis; format: functional, tissue-based; details: Eye, dose 5-30 µM, time 5.0 day
Mus musculus [7] = assay: Upregulation of Hsp90b1 mRNA level in eyes of C57BL/6J mouse model harboring rd10 mutant at 5 to 30 uM, IVT administered bilaterally measured after 5 days by RT-PCR analysis; format: functional, tissue-based; details: Eye, dose 5-30 µM, time 5.0 day
Mus musculus [8] = assay: Rescue of scotopic response in eyes of C57BL/6J mouse model harboring rd10 mutant at 5 to 30 uM, IVT administered bilaterally measured after 5 days by ERG analysis; format: functional, tissue-based; details: Eye, dose 5-30 µM, time 5.0 day
[9] = Induction of cone cell survival rate in eyes of C57BL/6J mouse model harboring rd10 mutant at 5 uM, IVT administered bilaterally measured after 5 days by fluorescence microscopy relative to control; format: functional, Eye; details: time 5 day
Cytochrome P450 = assay: Inhibition of CYP in human liver microsomes using ECOD at 1 to 50 uM measured upto 30 mins by fluorescence based assay; format: ADME, Microsome; details: 0.5 h, dose 1-50 µM
Danio rerio [10] = organism: Danio rerio; assay: Rescue of vision in zebrafish larval dye model harboring atp6v0e1/ucd6 at 100 uM treated for 2 days by OKR analysis; format: functional, organism-based; details: time 2.0 day
[11] = Solubility of compound; format: physicochemical
[12] = Stability of compound at pH 7.4 measured after 24 hrs; format: physicochemical; details: buffer, read-out: Stability
Cone cell [13] = assay: Rescue of cone morphology with numerous longer outer segments in eyes of C57BL/6J mouse model harboring rd10 mutant at 5 to 30 uM, IVT administered bilaterally measured after 5 days by fluorescence microscopy; format: functional, tissue-based; details: Eye, dose 5-30 µM, time 5.0 day
661W = assay: Cytoprotective effect against H2O2-induced oxidative stress in mouse 661W cells assessed as increase in acetylated alpha-tubulin level at 30 uM incubated for 24 hrs followed by H2O2 treatment for 3 hrs by Western blot analysis; format: functional, cell-based; details: time 27.0 hrs
Cone cell [14] = assay: Rescue of cone cell morphology in eyes of C57BL/6J mouse model harboring rd10 mutant at 30 uM, IVT administered bilaterally measured after 5 days by IHC analysis; format: functional, tissue-based; details: Eye, time 5.0 day
Mus musculus [15] = assay: Inhibition of discontinuities in tight junction pattern in eyes of C57BL/6J mouse model harboring rd10 mutant at 30 uM, IVT administered bilaterally measured after 5 days by ZO-1 staining based analysis; format: functional, tissue-based; details: Eye, time 5.0 day
Mus musculus [16] = assay: Upregulation of GNAT2 mRNA level in eyes of C57BL/6J mouse model harboring rd10 mutant at 5 to 30 uM, IVT administered bilaterally measured after 5 days by RT-PCR analysis; format: functional, tissue-based; details: Eye, dose 5-30 µM, time 5.0 day
Mus musculus [17] = assay: Upregulation of Nr3c1 mRNA level in eyes of C57BL/6J mouse model harboring rd10 mutant at 5 to 30 uM, IVT administered bilaterally measured after 5 days by RT-PCR analysis; format: functional, tissue-based; details: Eye, dose 5-30 µM, time 5.0 day
[18] = Induction of cone cell survival rate in eyes of C57BL/6J mouse model harboring rd10 mutant at 30 uM, IVT administered bilaterally measured after 5 days by fluorescence microscopy relative to control; format: functional, Eye; details: time 5 day
[19] = Lipophilicity, logP of compound; format: physicochemical; details: octanol/water
ARPE-19 [20] = assay: Cytotoxicity against human ARPE-19 cells assessed as cell viability at 1 uM incubated for 24 hrs by MTT assay; format: toxicity, cell-based; details: arpe-19, 24 h
[21] = Metabolic stability in mouse liver microsomes assessed as compound recovery at 10 uM incubated for 60 mins in presence of NADPH by HPLC analysis; format: ADME, Microsome; details: read-out: Stability
[22] = Toxicity in zebrafish larval dye model harboring atp6v0e1/ucd6 assessed as visual impairment at 20 to 100 uM treated for 2 days; parameters: species or system Danio rerio; details: in vivo, 48 h, dose 20-100 µM, time 2 day
[23] = Toxicity in Langendorff-perfused Wistar rat heart assessed as effect on chronotropic activity at 0.1 to 30 uM; format: tissue-based; details: dose 0.1-30 µM
[24] = Toxicity in Langendorff-perfused Wistar rat heart assessed as effect on QTc prolongation at 0.1 to 30 uM by ECG analysis; format: tissue-based; details: dose 0.1-30 µM
Mus musculus [25] = assay: Rescue of b-wave amplitude in photopic stimulation in eyes of C57BL/6J mouse model harboring rd10 mutant at 5 to 30 uM, IVT administered bilaterally measured after 5 days by ERG analysis; format: functional, tissue-based; details: Eye, dose 5-30 µM, time 5.0 day
Mus musculus [26] = assay: Upregulation of […] mRNA level in eyes of C57BL/6J mouse model harboring rd10 mutant at 5 to 30 uM, IVT administered bilaterally measured after 5 days by RT-PCR analysis; format: functional, tissue-based; details: Eye, dose 5-30 µM, time 5.0 day
Cone cell [27] = assay: Induction of cone cell survival in eyes of C57BL/6J mouse model harboring rd10 mutant at 5 to 30 uM, IVT administered bilaterally measured after 5 days by IHC analysis; format: functional, tissue-based; details: Eye, dose 5-30 µM, time 5.0 day

O=C(NO)c1ccc(CNC(=O)N2CCc3c(c4ccccc4n3Cc3ccccc3)C2)cc1
Activity (ARPE-19 [1]): Active | Activity [2]: Non-Toxic | remaining at 1 h, 10 µM [3]: 84% | Activity (Danio rerio [4]): inactive | MTD [5]: 100 µM | Activity (Mus musculus [6]): Active | Activity (Mus musculus [7]): Active | Activity (Mus musculus [8]): Active | Activity [9]: 4% | inhibition (INH) (Cytochrome P450): Not Active | Activity (Danio rerio [10]): Active | solubility [11]: 309 µM (≈ 140 µg/mL) | remaining at 24 h [12]: > 99% | Activity (Cone cell [13]): Active | Activity (661W): Active | Activity (Cone cell [14]): Active | inhibition (Mus musculus [15]): Active | Activity (Mus musculus [16]): Active | Activity (Mus musculus [17]): Active | Activity [18]: 17% | logP [19]: 2.94 | Activity (ARPE-19 [20]): Non-Toxic | remaining at 1 h, 10 µM [21]: 87% | Activity [22]: Non-Toxic | Activity [23]: Non-Toxic | Activity [24]: Non-Toxic | Activity (Mus musculus [25]): Active | Activity (Mus musculus [26]): Active | Activity (Cone cell [27]): Active
